Consider two molecules from patent US6517812B1, “Inhibition of psychostimulant-induced and nicotine-induced craving” (The General Hospital Corporation, priority 1997, dated 2003).

One series deals with rat frontal cortex. Put plainly: Laser Doppler-flowmetry (LDF) of regional cortical blood flow (CBF) in rat. The format is in vivo. To be noted: rat, bolus infusion 1, 5, 10 and 20 mg/kg (data not shown). The protocol: (§1) All procedures were carried out in accordance with NIH guidelines. Male Harlan Sprague-Dawley rats (225-300 gm) were anesthetized briefly with 1.5% halothane in oxygen for insertion of left femoral arterial and venous cannulae and placement of tracheostomy for mechanical ventilation (using a 16 gauge intravenous catheter, Inste-W, Becton Dickinson, Sandy, Utah). All wounds were infiltrated with 1% lidocaine before incision. Following surgery, the inspired halothane concentration was reduced to 0.7% and rats were paralyzed with 2 mg/kg intravenous pancuronium, followed by a continuous intravenous infusion of pancuronium at 2 mg/kg/hr. Pancuronium was dissolved in normal saline administered at 5 ml/kg/hr. Rats were mechanically ventilated (in a small animal volume controlled ventilator, Harvard Apparatus, Inc., South Natick, Mass.) with a 80/20 air/oxygen mixture, an inspiratory to expiratory ratio of 1:1, and an initial tidal volume of 3.0 ml at a rate of 40 breaths per minute. Ventilation parameters were adjusted to maintain normal arterial blood gases (pH=7.40±0.01, PaCO2=40±2, PaO2=145±10). Arterial blood samples (150 μl) withdrawn from cannula were analyzed for arterial partial pressures of oxygen, carbon dioxide, and pH (Ciba-Coming Model 1304) before administration of drugs, and at the end of each experiment before sacrifice, to ensure animal stability. Arterial blood pressure and rectal temperature were monitored throughout the experiment. […] Rats torsos were wrapped in two heating blankets (Gaymar, Orchid Park, N.Y.) circulating warm water to maintain core temperature at 37-38° C. To minimize MRI motion artifact, rats were placed into a custom plastic cradle attached to a head frame machined from delrin plastic (David Kopf Instruments, Fremont, Calif.); heads were fixed with plastic screws inserted into the ear canals and a bar inserted under the front incisors. Rat heads were shaved and covered with gel toothpaste to reduce magnetic susceptibility artifacts arising from air-tissue interfaces; ear canals and oropharynx were also filled with toothpaste. A surface coil was secured over the dorsal surface of the head before positioning the animal in the magnet center. Cocaine (RBI, Natick, Mass.), SCH-23390 (RBI, Natick, Mass.), and cocaine methiodide (NIDA, Bethesda, Md.) were dissolved in normal saline and administered in a 0.5 ml volume at a rate of 1 ml/min via the femoral vein. Sixty minutes passed before injections of cocaine were repeated.
Regional cortical blood flow was determined by LDF (Perimed, PF2B, Stockholm, Sweden) as described previously (Ayata, et al., 1996, J. Cereb. Blood Flow Metab., 16:539-541). Rats (n=8) were prepared exactly as for dynamic MR studies and positioned in a standard stereotaxic head frame. With the scalp incised and retracted, two holes (1-2 mm in diameter) were drilled through the skull 2 mm lateral to midline; one hole was 2 mm anterior to bregma overlying frontal cortex, and the other was 8 mm posterior to bregma to examine occipital cortex. The flow probe was positioned directly upon exposed dura mater in a puddle of mineral oil. […] All data were collected, stored, and analyzed using MacLab/8 data acquisition and analysis system (ADInstruments, Mountain View, Calif.). Arterial pressure was continuously monitored and the data stored; heart rate was calculated from arterial pressure pulses by the data acquisition software. […]

The subject of series [1] is Male Harlan Sprague-Dawley rats. The series can be described thus: Arterial blood pressure and heart rate monitoring in rat. Particulars: bolus infusion 1, 5, 10 and 20 mg/kg. The protocol: as §1, with “To minimize MRI motion artifact, rats were placed into a custom plastic cradle attached to a head frame machined from delrin plastic (David Kopf Instruments, Fremont, Calif.); heads were fixed with plastic screws inserted into the ear canals and a bar inserted under the front incisors. Rat heads were shaved and covered with gel toothpaste to reduce magnetic susceptibility artifacts arising from air-tissue interfaces; ear canals and oropharynx were also filled with toothpaste. A surface coil was secured over the dorsal surface of the head before positioning the animal in the magnet center. Cocaine (RBI, Natick, Mass.), SCH-23390 (RBI, Natick, Mass.), and cocaine methiodide (NIDA, Bethesda, Md.) were dissolved in normal saline and administered in a 0.5 ml volume at a rate of 1 ml/min via the femoral vein. Sixty minutes passed before injections of cocaine were repeated.” left out
Regional cortical blood flow was determined by LDF (Perimed, PF2B, Stockholm, Sweden) as described previously (Ayata, et al., 1996, J. Cereb. Blood Flow Metab., 16:539-541). […] All data were collected, stored, and analyzed using MacLab/8 data acquisition and analysis system (ADInstruments, Mountain View, Calif.). Arterial pressure was continuously monitored and the data stored; heart rate was calculated from arterial pressure pulses by the data acquisition software. […]

For series [2] the following is noted: literature (Schindler 1992, Hemby 1994); cited from earlier work.
In series [3] the target is T1, D1 receptor (Rattus norvegicus, UniProt P18901).
T1 construct: Male Harlan Sprague-Dawley rats (225-300 gm) were anesthetized briefly; from tissue; host or cells: brain of living male Sprague-Dawley rats (in vivo)
T1 sequence (P18901 whole entry): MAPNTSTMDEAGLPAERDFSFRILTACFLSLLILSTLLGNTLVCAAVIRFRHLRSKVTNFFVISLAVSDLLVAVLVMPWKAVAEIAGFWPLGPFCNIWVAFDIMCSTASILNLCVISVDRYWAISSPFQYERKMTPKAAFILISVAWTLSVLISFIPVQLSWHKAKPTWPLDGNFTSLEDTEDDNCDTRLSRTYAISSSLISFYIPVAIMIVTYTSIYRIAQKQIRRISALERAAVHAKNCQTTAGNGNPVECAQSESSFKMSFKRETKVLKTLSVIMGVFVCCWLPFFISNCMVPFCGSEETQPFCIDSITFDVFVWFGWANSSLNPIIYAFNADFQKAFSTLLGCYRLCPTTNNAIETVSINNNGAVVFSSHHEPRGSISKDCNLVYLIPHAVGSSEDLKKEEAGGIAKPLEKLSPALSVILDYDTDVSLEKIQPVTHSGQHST
Put plainly: SCH-23390 pretreatment before cocaine, CBV-weighted fMRI in rat. To be noted: post 0.5 mg/kg cocaine. The class given is in vivo.

The target in series [4] is T1, D1 receptor. The series can be described thus: SCH-23390 pretreatment before cocaine, LDF of frontal cortex CBF in rat. The format is in vivo. To be noted: 0.5 mg/kg cocaine after SCH-23390 pretreatment, n=3, p<0.04. The protocol:
All procedures were carried out in accordance with NIH guidelines. Male Harlan Sprague-Dawley rats (225-300 gm) were anesthetized briefly with 1.5% halothane in oxygen for insertion of left femoral arterial and venous cannulae and placement of tracheostomy for mechanical ventilation (using a 16 gauge intravenous catheter, Inste-W, Becton Dickinson, Sandy, Utah). All wounds were infiltrated with 1% lidocaine before incision. Following surgery, the inspired halothane concentration was reduced to 0.7% and rats were paralyzed with 2 mg/kg intravenous pancuronium, followed by a continuous intravenous infusion of pancuronium at 2 mg/kg/hr. Pancuronium was dissolved in normal saline administered at 5 ml/kg/hr. […] Arterial blood samples (150 μl) withdrawn from cannula were analyzed for arterial partial pressures of oxygen, carbon dioxide, and pH (Ciba-Coming Model 1304) before administration of drugs, and at the end of each experiment before sacrifice, to ensure animal stability. Arterial blood pressure and rectal temperature were monitored throughout the experiment. […]
Regional cortical blood flow was determined by LDF (Perimed, PF2B, Stockholm, Sweden) as described previously (Ayata, et al., 1996, J. Cereb. Blood Flow Metab., 16:539-541). […] All data were collected, stored, and analyzed using MacLab/8 data acquisition and analysis system (ADInstruments, Mountain View, Calif.). […]

On to `COC(=O)[C@H]1[C@@H](OC(=O)c2ccccc2)C[C@@H]2CC[C@H]1[N+]2(C)C.[I-]` [cocaine methiodide], for which the “change in frontal cortex CBF” value in the series on rat frontal cortex is listed as “did not produce any significant change”. Further, the “blood pressure and heart rate” value in series [1] is “transient decrease”. Further, in series [2], the “blood brain barrier passage” value was “does not cross the blood brain barrier”.
On to `CN1CCc2cc(Cl)c(O)cc2[C@@H](c2ccccc2)C1` [SCH-23390], for which, at D1 receptor [3], the “drop in CBV at nadir, frontal neocortex” value is on record as 5% and the “drop in CBV at nadir, striatum” value is listed as 8%. For the same molecule, the “change in CBF relative to pre-drug baseline” value at D1 receptor [4] is listed as −18±3%.
